We go through two compounds from patent US11345912B2, “Directed evolution of multivalent glycopeptides that tightly bind to target proteins” (Brandeis University, priority 2013, dated 2022).

Each structure is given as a SMILES string.

As a reminder, the Kd is the free concentration of one partner at which half of the binding sites on the other are occupied at equilibrium, for simple one-to-one binding.

The subject of this test is 2G12. As to the kind of experiment: Binding curve and KD determination of 2G12-glycopeptide interaction (radiolabeled glycopeptide, protein G magnetic bead capture, scintillation counting). The protocol: The resulting mRNAs were purified by denaturing PAGE or MEGAclear kit (Ambion), and 1 μM RNA was used in PURE system translation (reaction volume of translation varied). Typically, 25 μL of translated reaction was diluted with 100 μL of binding buffer (50 mM Tris-HCl, pH 7.8, 300 mM NaCl, 5 mM β-mercaptoethanol) and 25 μL of Ni-NTA agarose suspension (Qiagen), and tumbled at room temperature for 1 h. The resins were transferred to 0.22 μm spin-filter rinsing with 100 μL of bind buffer, and washed with 3×200 μL of bind buffer and 2×200 μL of wash buffer (50 mM Tris-HCl, pH 7.8, 5 mM β-mercaptoethanol). The bound peptides were eluted with 2×25 μL of 0.1% TFA. The eluted peptides were analyzed by MALDI-TOF MS, using α-Cyano-4-hydroxycinnamic acid matrix (Sigma), with or without desalting with ZipTip C18 resin (Millipore). For calibration of MALDI-TOF-MS, at least two of the following standards, bovine insulin, E. coli thioredoxin and/or horse apomyoglobin were used. To quantitate peptide yields, the radioactivities were measured by liquid scintillation counting. For the click reaction, the translated and purified peptides were mixed with 0.1% (v/v) Triton X-100, and then dialyzed against H2O containing 0.1% (v/v) Triton X-100 using Slide-A-Lyzer MINI Dialysis Devices, 3.5K MWCO (Thermo Scientific) overnight to desalt. After dialysis, the peptides were divided into two portions: one was glycosylated via the click reaction, while the other was saved as a non-glycosylated peptide control. […] The glycosylated peptide (<4 pmol) was incubated with 100 nM 2G12 in selection buffer (40 μL) at room temp. The solution was then tumbled 30 min with 0.12 mg of equilibrated Dynabeads Protein G to capture 2G12-glycopeptide complex. Beads were then washed with 3×40 μL of selection buffer and resuspended in 10 μL of selection buffer. The resuspended beads were heated at 70° C. for 30 min to denature 2G12 and elute glycopeptides, chilled on ice for 5 min, and tumbled at room temperature for 10 min. The magnetically isolated supernatant was recovered and the beads were rinsed with 10 μL of selection buffer.
Then, the solution was added to 0.12 mg of pre-equilibrated Dynabeads Protein G and tumbled at room temperature for 30 min. The supernatant was removed and the beads were washed with 3×40 μL of selection buffer. The radioactivities of the supernatant and wash solutions were measured by liquid scintillation counting as unbound fractions. […] The beads were resuspended in 40 μL of selection buffer, heated at 70° C. for 30 min to elute the bound glycopeptides, chilled on ice for 5 min, and tumbled at room temperature for 10 min. The supernatant was removed, and the beads were washed with 40 μL of selection buffer and resuspended in 40 μL of selection buffer. The radioactivities of these solutions and suspensions were measured by liquid scintillation counting separately and the values were combined as apparent bound fractions. […] All experiments were done at least in triplicate. KDs were calculated as described in the footnote of Table 4 (below).

Regarding `CC[C@H](C)[C@H](NC(=O)[C@H](CCC(N)=O)NC(=O)[C@H](CCCCN)NC(=O)[C@H](CC(C)C)NC(=O)[C@H](Cc1c[nH]cn1)NC(=O)[C@H](CC(C)C)NC(=O)[C@@H](NC(=O)[C@H](CC(=O)O)NC(=O)[C@H](CCc1cn(C2CCC(OC3O[C@H](CO[C@H]4O[C@H](CO[C@H]5O[C@H](CO)[C@@H](O)[C@H](O)[C@@H]5O[C@H]5O[C@H](CO)[C@@H](O)[C@H](O)[C@@H]5O)[C@@H](O)[C@H](O[C@H]5O[C@H](CO)[C@@H](O)[C@H](O)[C@@H]5O[C@H]5O[C@H](CO)[C@@H](O)[C@H](O)[C@@H]5O)[C@@H]4O)[C@@H](O)[C@H](O[C@H]4O[C@H](CO)[C@@H](O)[C@H](O)[C@@H]4O[C@H]4O[C@H](CO)[C@@H](O)[C@H](O)[C@@H]4O[C@H]4O[C@H](CO)[C@@H](O)[C@H](O)[C@@H]4O)[C@@H]3O)CC2)nn1)NC=O)[C@@H](C)O)C(=O)NCC(=O)NCC(=O)N[C@@H](CCc1cn(C2CCC(OC3O[C@H](CO[C@H]4O[C@H](CO[C@H]5O[C@H](CO)[C@@H](O)[C@H](O)[C@@H]5O[C@H]5O[C@H](CO)[C@@H](O)[C@H](O)[C@@H]5O)[C@@H](O)[C@H](O[C@H]5O[C@H](CO)[C@@H](O)[C@H](O)[C@@H]5O[C@H]5O[C@H](CO)[C@@H](O)[C@H](O)[C@@H]5O)[C@@H]4O)[C@@H](O)[C@H](O[C@H]4O[C@H](CO)[C@@H](O)[C@H](O)[C@@H]4O[C@H]4O[C@H](CO)[C@@H](O)[C@H](O)[C@@H]4O[C@H]4O[C@H](CO)[C@@H](O)[C@H](O)[C@@H]4O)[C@@H]3O)CC2)nn1)C(=O)N1CCC[C@H]1C(=O)N[C@@H](CC(N)=O)C(=O)N[C@@H](CS)C(=O)N[C@H](C(=O)N[C@H](C(=O)N[C@@H](CCC(N)=O)C(=O)N[C@@H](CCC(N)=O)C(=O)N[C@@H](CC(=O)O)C(=O)N[C@H](C(=O)N[C@@H](CCCNC(=N)N)C(=O)N[C@@H](CCc1cn(C2CCC(OC3O[C@H](CO[C@H]4O[C@H](CO[C@H]5O[C@H](CO)[C@@H](O)[C@H](O)[C@@H]5O[C@H]5O[C@H](CO)[C@@H](O)[C@H](O)[C@@H]5O)[C@@H](O)[C@H](O[C@H]5O[C@H](CO)[C@@H](O)[C@H](O)[C@@H]5O[C@H]5O[C@H](CO)[C@@H](O)[C@H](O)[C@@H]5O)[C@@H]4O)[C@@H](O)[C@H](O[C@H]4O[C@H](CO)[C@@H](O)[C@H](O)[C@@H]4O[C@H]4O[C@H](CO)[C@@H](O)[C@H](O)[C@@H]4O[C@H]4O[C@H](CO)[C@@H](O)[C@H](O)[C@@H]4O)[C@@H]3O)CC2)nn1)C(=O)N[C@H](C(=O)N[C@@H](CO)C(=O)N[C@H](C(=O)N1CCC[C@H]1C(=O)N[C@@H](Cc1ccc(O)cc1)C(=O)N[C@H](C(=O)N[C@@H](Cc1ccc(O)cc1)C(=O)N[C@H](C(=O)N[C@@H](Cc1c[nH]c2ccccc12)C(=O)N1CCC[C@H]1C(=O)NCC(=O)N[C@@H](CO)C(=O)NCC(=O)N[C@@H](CO)C(=O)N[C@@H](CC(C)C)C(=O)NCC(=O)N[C@@H](Cc1c[nH]cn1)C(=O)N[C@@H](Cc1c[nH]cn1)C(=O)N[C@@H](Cc1c[nH]cn1)C(=O)N[C@@H](Cc1c[nH]cn1)C(=O)N[C@@H](Cc1c[nH]cn1)C(=O)N[C@@H](Cc1c[nH]cn1)C(=O)N[C@@H](CCCNC(=N)N)C(=O)N[C@@H](CC(=O)O)C(=O)N[C@@H](Cc1ccc(O)cc1)C(=O)N[C@@H](CCCCN)C(=O)N[C@@H](CC(=O)O)C(=O)N[C@@H](CC(=O)O)C(=O)N[C@@H](CC(=O)O)C(=O)N[C@@H](CC(=O)O)C(=O)N[C@@H](CCCCN)C(=O)O)[C@@H](C)O)[C@@H](C)O)[C@@H](C)CC)[C@@H](C)O)C(C)C)[C@@H](C)O)[C@@H](C)CC` (some centres unmarked) [Clone 10F3, XDTLHLKQIGGXPNCITQQDVRXTSIPYTYTWP], the “tolerance of Cys substitutions for 2G12 binding (in words)” value (Cys to Ser mutants, Table 6) is “tolerated”. Further, for the setting “Table 4, maximal fraction bound from curve fit, error = standard error of fit”, the “Fmax [%]” value was determined as 100 ± 2.7%. Also, the Kd (Table 4, ribosomally translated radiolabeled glycopeptide with His6/FLAG tag, room temperature, fit Fbound=(Fmax[2G12])/(KD+[2G12]), error = standard error of fit) was found to be 3 ± 0.31 nM.
`CC[C@H](C)[C@H](NC(=O)[C@H](CCC(N)=O)NC(=O)[C@H](CCCCN)NC(=O)[C@H](CC(C)C)NC(=O)[C@H](Cc1c[nH]cn1)NC(=O)[C@H](CC(C)C)NC(=O)[C@@H](NC(=O)[C@H](CC(=O)O)NC(=O)[C@H](CCc1cn(C2CCC(OC3O[C@H](CO[C@H]4O[C@H](CO[C@H]5O[C@H](CO)[C@@H](O)[C@H](O)[C@@H]5O[C@H]5O[C@H](CO)[C@@H](O)[C@H](O)[C@@H]5O)[C@@H](O)[C@H](O[C@H]5O[C@H](CO)[C@@H](O)[C@H](O)[C@@H]5O[C@H]5O[C@H](CO)[C@@H](O)[C@H](O)[C@@H]5O)[C@@H]4O)[C@@H](O)[C@H](O[C@H]4O[C@H](CO)[C@@H](O)[C@H](O)[C@@H]4O[C@H]4O[C@H](CO)[C@@H](O)[C@H](O)[C@@H]4O[C@H]4O[C@H](CO)[C@@H](O)[C@H](O)[C@@H]4O)[C@@H]3O)CC2)nn1)NC=O)[C@@H](C)O)C(=O)NCC(=O)NCC(=O)N[C@@H](CCc1cn(C2CCC(OC3O[C@H](CO[C@H]4O[C@H](CO[C@H]5O[C@H](CO)[C@@H](O)[C@H](O)[C@@H]5O[C@H]5O[C@H](CO)[C@@H](O)[C@H](O)[C@@H]5O)[C@@H](O)[C@H](O[C@H]5O[C@H](CO)[C@@H](O)[C@H](O)[C@@H]5O[C@H]5O[C@H](CO)[C@@H](O)[C@H](O)[C@@H]5O)[C@@H]4O)[C@@H](O)[C@H](O[C@H]4O[C@H](CO)[C@@H](O)[C@H](O)[C@@H]4O[C@H]4O[C@H](CO)[C@@H](O)[C@H](O)[C@@H]4O[C@H]4O[C@H](CO)[C@@H](O)[C@H](O)[C@@H]4O)[C@@H]3O)CC2)nn1)C(=O)N1CCC[C@H]1C(=O)N[C@@H](CC(N)=O)C(=O)N[C@@H](CO)C(=O)N[C@H](C(=O)N[C@H](C(=O)N[C@@H](CCC(N)=O)C(=O)N[C@@H](CCC(N)=O)C(=O)N[C@@H](CC(=O)O)C(=O)N[C@H](C(=O)N[C@@H](CCCNC(=N)N)C(=O)N[C@@H](CCc1cn(C2CCC(OC3O[C@H](CO[C@H]4O[C@H](CO[C@H]5O[C@H](CO)[C@@H](O)[C@H](O)[C@@H]5O[C@H]5O[C@H](CO)[C@@H](O)[C@H](O)[C@@H]5O)[C@@H](O)[C@H](O[C@H]5O[C@H](CO)[C@@H](O)[C@H](O)[C@@H]5O[C@H]5O[C@H](CO)[C@@H](O)[C@H](O)[C@@H]5O)[C@@H]4O)[C@@H](O)[C@H](O[C@H]4O[C@H](CO)[C@@H](O)[C@H](O)[C@@H]4O[C@H]4O[C@H](CO)[C@@H](O)[C@H](O)[C@@H]4O[C@H]4O[C@H](CO)[C@@H](O)[C@H](O)[C@@H]4O)[C@@H]3O)CC2)nn1)C(=O)N[C@H](C(=O)N[C@@H](CO)C(=O)N[C@H](C(=O)N1CCC[C@H]1C(=O)N[C@@H](Cc1ccc(O)cc1)C(=O)N[C@H](C(=O)N[C@@H](Cc1ccc(O)cc1)C(=O)N[C@H](C(=O)N[C@@H](Cc1c[nH]c2ccccc12)C(=O)N1CCC[C@H]1C(=O)NCC(=O)N[C@@H](CO)C(=O)NCC(=O)N[C@@H](CO)C(=O)N[C@@H](CC(C)C)C(=O)NCC(=O)N[C@@H](Cc1c[nH]cn1)C(=O)N[C@@H](Cc1c[nH]cn1)C(=O)N[C@@H](Cc1c[nH]cn1)C(=O)N[C@@H](Cc1c[nH]cn1)C(=O)N[C@@H](Cc1c[nH]cn1)C(=O)N[C@@H](Cc1c[nH]cn1)C(=O)N[C@@H](CCCNC(=N)N)C(=O)N[C@@H](CC(=O)O)C(=O)N[C@@H](Cc1ccc(O)cc1)C(=O)N[C@@H](CCCCN)C(=O)N[C@@H](CC(=O)O)C(=O)N[C@@H](CC(=O)O)C(=O)N[C@@H](CC(=O)O)C(=O)N[C@@H](CC(=O)O)C(=O)N[C@@H](CCCCN)C(=O)O)[C@@H](C)O)[C@@H](C)O)[C@@H](C)CC)[C@@H](C)O)C(C)C)[C@@H](C)O)[C@@H](C)CC` (some centres unmarked) [Clone 10F3-C15S]: the “Fmax [%]” value (Table 6 mutational analysis, radioactive bead binding assay) is 63%. In addition, the Kd (Table 6 mutational analysis, radioactive bead binding assay, ribosomally translated) was determined as 2.91 nM.
